Measured values taken from US12692269B2, “Therapeutic compounds” (Genentech, Inc., priority 2019, dated 2026).

What was measured:
Assay type in all cases: binding
TEAD1 YAP50-100 = TEAD1 YAP50-100 (Homo sapiens, UniProt P28347); experiment: TEAD1-YAP HTRF (TR-FRET) protein-protein interaction assay; conditions: TEAD1, YAP peptide 50-100, HTRF; for EC50: read-out: TEAD1 YAP50-100 HTRF combined: EC50
Method in brief: (§1)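 TEAD YBD (aa 217-447, His-tag) + Eu anti-His; cpd 30 min; + biotin-YAP 50-100 or biotin-TAZ 13-57 / SA-XL665; 60 min RT; TR-FRET 665/615; 4-parameter IC50/EC50.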

TEAD2 YAP50-100 = TEAD2 YAP50-100 (Homo sapiens, UniProt Q15562); experiment: TEAD2-YAP HTRF (TR-FRET) protein-protein interaction assay; conditions: TEAD2, YAP peptide 50-100, HTRF; for EC50: read-out: TEAD2 YAP50-100 HTRF combined: EC50
Sequence of TEAD2 YAP50-100 (Q15562 217-447): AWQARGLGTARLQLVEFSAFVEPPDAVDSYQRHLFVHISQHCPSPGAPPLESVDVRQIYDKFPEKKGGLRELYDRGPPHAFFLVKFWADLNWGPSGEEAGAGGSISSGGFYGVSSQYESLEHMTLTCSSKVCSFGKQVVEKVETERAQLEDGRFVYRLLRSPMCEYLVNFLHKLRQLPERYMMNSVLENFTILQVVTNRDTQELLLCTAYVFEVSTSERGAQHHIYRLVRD
Method in brief: as §1

TEAD3 YAP50-100 = TEAD3 YAP50-100 (Homo sapiens, UniProt Q99594); experiment: TEAD3-YAP HTRF (TR-FRET) protein-protein interaction assay; conditions: TEAD3, YAP peptide 50-100, HTRF; for EC50: read-out: TEAD3 YAP50-100 HTRF combined: EC50
Sequence of TEAD3 YAP50-100 (Q99594 173-435 limits assumed): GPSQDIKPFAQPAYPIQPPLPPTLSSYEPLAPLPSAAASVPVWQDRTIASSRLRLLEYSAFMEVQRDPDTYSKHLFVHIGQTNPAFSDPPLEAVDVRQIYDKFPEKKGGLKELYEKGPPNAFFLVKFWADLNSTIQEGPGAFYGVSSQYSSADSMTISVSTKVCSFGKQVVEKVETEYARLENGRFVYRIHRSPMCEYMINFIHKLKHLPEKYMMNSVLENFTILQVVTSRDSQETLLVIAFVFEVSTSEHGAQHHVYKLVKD
Method in brief: as §1

TEAD4 YAP50-100 = TEAD4 YAP50-100 (Homo sapiens, UniProt Q15561); experiment: TEAD4-YAP HTRF (TR-FRET) protein-protein interaction assay; conditions: TEAD4, YAP peptide 50-100, HTRF; for EC50: read-out: TEAD4 YAP50-100 HTRF combined: EC50
Sequence of TEAD4 YAP50-100 (Q15561 217-434 limits assumed): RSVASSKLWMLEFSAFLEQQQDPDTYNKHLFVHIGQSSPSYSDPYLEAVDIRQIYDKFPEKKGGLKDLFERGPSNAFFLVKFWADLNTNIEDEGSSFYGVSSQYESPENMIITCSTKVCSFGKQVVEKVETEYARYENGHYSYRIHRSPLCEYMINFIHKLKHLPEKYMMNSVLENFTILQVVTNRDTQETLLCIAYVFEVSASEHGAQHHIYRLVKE
Method in brief: as §1

[1] = target: TEAD1 TAZ (amino acids 13-57) (Homo sapiens, UniProt P28347); experiment: TEAD1-TAZ HTRF (TR-FRET) protein-protein interaction assay; conditions: for TEAD1 TAZ HTRF combined: Max % Inhibition: TEAD1, TAZ peptide; for EC50: TEAD1-TAZ HTRF, TR-FRET 665 nm/615 nm, read-out: TEAD1 TAZ HTRF combined: EC50
Sequence of TEAD1 TAZ (amino acids 13-57) (P28347 167-426 limits assumed): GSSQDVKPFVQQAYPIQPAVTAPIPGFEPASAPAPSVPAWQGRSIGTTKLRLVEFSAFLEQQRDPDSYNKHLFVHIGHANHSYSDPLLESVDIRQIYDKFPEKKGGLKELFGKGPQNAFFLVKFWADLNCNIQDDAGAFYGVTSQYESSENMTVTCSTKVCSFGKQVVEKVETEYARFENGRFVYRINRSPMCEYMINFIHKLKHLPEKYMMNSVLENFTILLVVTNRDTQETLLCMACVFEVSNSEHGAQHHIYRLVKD
Method in brief: as §1

[2] = target: TEAD2 TAZ (amino acids 13-57) (Homo sapiens, UniProt Q15562); experiment: TEAD2-TAZ HTRF (TR-FRET) protein-protein interaction assay; conditions: for TEAD2 TAZ HTRF combined: Max % Inhibition: TEAD2, TAZ peptide; for EC50: TEAD2-TAZ HTRF, TR-FRET 665 nm/615 nm, read-out: TEAD2 TAZ HTRF combined: EC50
Sequence of TEAD2 TAZ (amino acids 13-57) (Q15562 217-447): as the sequence (Q15562 217-447) above
Method in brief: as §1

[3] = target: TEAD3 TAZ (amino acids 13-57) (Homo sapiens, UniProt Q99594); experiment: TEAD3-TAZ HTRF (TR-FRET) protein-protein interaction assay; conditions: for TEAD3 TAZ HTRF combined: Max % Inhibition: TEAD3, TAZ peptide; for EC50: TEAD3-TAZ HTRF, TR-FRET 665 nm/615 nm, read-out: TEAD3 TAZ HTRF combined: EC50
Sequence of TEAD3 TAZ (amino acids 13-57) (Q99594 173-435 limits assumed): as the sequence (Q99594 173-435 limits assumed) above
Method in brief: as §1

[4] = target: TEAD4 TAZ (amino acids 13-57) (Homo sapiens, UniProt Q15561); experiment: TEAD4-TAZ HTRF (TR-FRET) protein-protein interaction assay; conditions: for TEAD4 TAZ HTRF combined: Max % Inhibition: TEAD4, TAZ peptide; for EC50: TEAD4-TAZ HTRF, TR-FRET 665 nm/615 nm, read-out: TEAD4 TAZ HTRF combined: EC50
Sequence of TEAD4 TAZ (amino acids 13-57) (Q15561 217-434 limits assumed): as the sequence (Q15561 217-434 limits assumed) above
Method in brief: as §1

Sequence of TEAD1 YAP50-100 (P28347 167-426 limits assumed): as the sequence (P28347 167-426 limits assumed) above

SMILES	TEAD1 YAP50-100 HTRF combined: Max % Inhibition (TEAD1 YAP50-100) [%]	EC50 (TEAD1 YAP50-100) [nM]	TEAD2 YAP50-100 HTRF combined: Max % Inhibition (TEAD2 YAP50-100) [%]	EC50 (TEAD2 YAP50-100) [nM]	TEAD3 YAP50-100 HTRF combined: Max % Inhibition (TEAD3 YAP50-100) [%]	EC50 (TEAD3 YAP50-100) [nM]	TEAD4 YAP50-100 HTRF combined: Max % Inhibition (TEAD4 YAP50-100) [%]	EC50 (TEAD4 YAP50-100) [nM]	TEAD1 TAZ HTRF combined: Max % Inhibition [1] [%]	EC50 [1] [nM]	TEAD2 TAZ HTRF combined: Max % Inhibition [2] [%]	EC50 [2] [nM]	TEAD3 TAZ HTRF combined: Max % Inhibition [3] [%]	EC50 [3] [nM]	TEAD4 TAZ HTRF combined: Max % Inhibition [4] [%]	EC50 [4] [nM]
CCc1ccnc(-c2nn3c(=O)cc(-c4ccc(C5CCCCC5)cc4)[nH]c3c2C(=O)N2CC(CF)C2)n1 [Compound 12, 5-(4-Cyclohexylphenyl)-2-(4-ethylpyrimidin-2-yl)-3-(3-(fluoromethyl)azetidine-1-carbonyl)pyrazolo[1,5-a]pyrimidin-7(4H)-one]	72.0	140	69.0	20	66.0	190	55.0	200	67.5	110	64.5	20	56.0	240	58.0	180
COc1nccnc1-c1nn2c(=O)cc(-c3ccc(C4CCCCC4)cc3)[nH]c2c1C(=O)N1CC(CF)C1 [Compound 13, 5-(4-Cyclohexylphenyl)-3-(3-(fluoromethyl)azetidine-1-carbonyl)-2-(3-methoxypyrazin-2-yl)pyrazolo[1,5-a]pyrimidin-7(4H)-one]	74.0	80	65.0	20	71.5	180	50.0	210	66.5	100	60.0	20	56.5	180	40.0	130
COc1ccnc(-c2nn3c(=O)cc(-c4ccc(C5CCCCC5)cc4)[nH]c3c2C(=O)N2CC(CF)C2)n1 [Compound 14, 5-(4-Cyclohexylphenyl)-3-(3-(fluoromethyl)azetidine-1-carbonyl)-2-(4-methoxypyrimidin-2-yl)pyrazolo[1,5-a]pyrimidin-7(4H)-one]	73.0	30	62.5	10	61.0	90	50.0	60	74.0	60	67.5	10	52.5	80	53.5	50
O=C(c1c(-c2ncccn2)nn2c(=O)cc(-c3ccc(C4CCCCC4)cc3)[nH]c12)N1CC(CF)C1 [Compound 15, 5-(4-Cyclohexylphenyl)-3-(3-(fluoromethyl)azetidine-1-carbonyl)-2-(pyrimidin-2-yl)pyrazolo[1,5-a]pyrimidin-7(4H)-one]	74.0	30	64.8	10	64.0	70	50.5	30	64.0	40	62.0	10	55.8	70	49.0	20

Other lines, results leading:

TEAD1 YAP50-100 HTRF combined: Max % Inhibition (TEAD1 YAP50-100) [%]	EC50 (TEAD1 YAP50-100) [nM]	TEAD2 YAP50-100 HTRF combined: Max % Inhibition (TEAD2 YAP50-100) [%]	EC50 (TEAD2 YAP50-100) [nM]	TEAD3 YAP50-100 HTRF combined: Max % Inhibition (TEAD3 YAP50-100) [%]	EC50 (TEAD3 YAP50-100) [nM]	TEAD4 YAP50-100 HTRF combined: Max % Inhibition (TEAD4 YAP50-100) [%]	EC50 (TEAD4 YAP50-100) [nM]	TEAD1 TAZ HTRF combined: Max % Inhibition [1] [%]	EC50 [1] [nM]	TEAD2 TAZ HTRF combined: Max % Inhibition [2] [%]	EC50 [2] [nM]	TEAD3 TAZ HTRF combined: Max % Inhibition [3] [%]	EC50 [3] [nM]	TEAD4 TAZ HTRF combined: Max % Inhibition [4] [%]	EC50 [4] [nM]	SMILES
70.0	60	57.5	10	55.0	80	40.5	20	59.5	50	53.5	10	44.5	80	38.0	20	O=C(c1c(-c2ccccn2)nn2c(=O)cc(-c3ccc(C4CCCCC4)cc3)[nH]c12)N1CC(CF)C1 [Compound 16, 5-(4-Cyclohexylphenyl)-3-(3-(fluoromethyl)azetidine-1-carbonyl)-2-(pyridin-2-yl)pyrazolo[1,5-a]pyrimidin-7(4H)-one]
69.0	30	61.6	10	63.3	60	42.0	40	60.6	40	60.9	10	53.9	60	34.9	30	O=C(c1c(-c2cnccn2)nn2c(=O)cc(-c3ccc(C4CCCCC4)cc3)[nH]c12)N1CC(CF)C1 [Compound 17, 5-(4-Cyclohexylphenyl)-3-(3-(fluoromethyl)azetidine-1-carbonyl)-2-(pyrazin-2-yl)pyrazolo[1,5-a]pyrimidin-7(4H)-one]
73.0	50	58.5	10	54.5	90	47.0	20	67.0	60	55.5	10	43.0	90	49.0	20	Cc1ccnc(-c2nn3c(=O)cc(-c4ccc(C5CCCCC5)cc4)[nH]c3c2C(=O)N2CC(CF)C2)c1 [Compound 18, 5-(4-Cyclohexylphenyl)-3-(3-(fluoromethyl)azetidine-1-carbonyl)-2-(4-methylpvridin-2-yl)pyrazolo[1,5-a]pyrimidin-7(4H)-one]
69.0	40	67.5	10	60.0	60	46.0	60	59.5	70	63.5	10	53.0	60	38.5	50	O=C(c1c(-c2ncco2)nn2c(=O)cc(-c3ccc(C4CCCCC4)cc3)[nH]c12)N1CC(CF)C1 [Compound 19, 5-(4-Cyclohexylphenyl)-3-(3-(fluoromethyl)azetidine-1-carbonyl)-2-(oxazol-2-yl)pyrazolo[1,5-a]pyrimidin-7(4H)-one]
